Data taken from ChEMBL document CHEMBL1671659, “In vitro and in vivo properties of dihydrophthalazine antifolates, a novel family of antibacterial drugs” (Antimicrob Agents Chemother, 2009).
pIC50: −log10 of the molar value. ≈ marks a conversion by molar mass, not a printed value. Calls of active or inactive are those of the source. The calls are words filed in the database; no cut-off is given here.

Assays:
[1] = system: Mycobacterium avium; experiment: Antibacterial activity against Mycobacterium avium assessed as inhibition of bacterial growth at <=4 ug/ml; format: functional; set-up: scale not given: the % may be the effect or the level left
[2] = system: Enterococcus faecalis; experiment: Antibacterial activity against Enterococcus faecalis; format: functional
[3] = system: Enterococcus faecalis; experiment: Antibacterial activity against Enterococcus faecalis in presence of 50 ug/ml thymidine; format: functional
[4] = system: Enterococcus faecalis; experiment: Antibacterial activity against Enterococcus faecalis in presence of 250 ug/ml thymidine; format: functional
[5] = system: Enterococcus faecium; experiment: Antibacterial activity against Enterococcus faecium; format: functional
[6] = system: Enterococcus faecium; experiment: Antibacterial activity against Enterococcus faecium in presence of 50 ug/ml thymidine; format: functional
[7] = system: Enterococcus faecium; experiment: Antibacterial activity against Enterococcus faecium in presence of 250 ug/ml thymidine; format: functional
[8] = system: Streptococcus pneumoniae; experiment: Antibacterial activity against Streptococcus pneumoniae
[9] = system: Streptococcus pneumoniae; experiment: Antibacterial activity against Streptococcus pneumoniae in presence of 50 ug/ml thymidine; format: functional
[10] = system: Streptococcus pneumoniae; experiment: Antibacterial activity against Streptococcus pneumoniae in presence of 250 ug/ml thymidine; format: functional
[11] = system: Haemophilus influenzae; experiment: Antibacterial activity against Haemophilus influenzae; format: functional
[12] = system: Haemophilus influenzae; experiment: Antibacterial activity against Haemophilus influenzae in presence of 50 ug/ml thymidine
[13] = system: Haemophilus influenzae; experiment: Antibacterial activity against Haemophilus influenzae in presence of 250 ug/ml thymidine; format: functional
[14] = system: Enterococcus faecalis; experiment: Antibacterial activity against vancomycin-sensitive folA, dfrF-negative Enterococcus faecalis harboring A5T, K88N, F102Y mutation in dfrE gene; format: functional
[15] = system: Enterococcus faecalis; experiment: Antibacterial activity against vancomycin-sensitive dfrE, dfrF-positive and folA-negative Enterococcus faecalis; format: functional
[16] = system: Enterococcus faecium; experiment: Antibacterial activity against vancomycin-sensitive dfrE, dfrF-negative and folA-positive Enterococcus faecium; format: functional
[17] = system: Enterococcus faecium; experiment: Antibacterial activity against vancomycin-resistant dfrE, dfrF-negative and folA-positive Enterococcus faecium; format: functional
[18] = system: Staphylococcus aureus; experiment: Antibacterial activity against methicillin-sensitive dfrB-positive abd dfrA, dfrG-negative Staphylococcus aureus; format: functional
[19] = system: Staphylococcus aureus; experiment: Antibacterial activity against methicillin-resistant dfrA within SCCmec-N1, dfrA and dfrG -negative Staphylococcus aureus harboring F98Y mutation in dfrB gene; format: functional
[20] = system: Staphylococcus aureus; experiment: Antibacterial activity against methicillin-resistant dfrB, dfrA-positive and dfrA within SCCmec-N1, dfrG-negative Staphylococcus aureus; format: functional
[21] = system: Staphylococcus aureus; experiment: Antibacterial activity against methicillin-resistant dfrB, dfrG-positive and dfrA-negative Staphylococcus aureus; format: functional
[22] = system: Staphylococcus epidermidis; experiment: Antibacterial activity against methicillin-sensitive dfrC-positive and dfrA, dfrD-negative Staphylococcus epidermidis; format: functional
[23] = system: Staphylococcus epidermidis; experiment: Antibacterial activity against methicillin-sensitive dfrA, dfrD-negative Staphylococcus epidermidis harboring F98Y mutation in dfrC gene; format: functional
[24] = system: Staphylococcus epidermidis; experiment: Antibacterial activity against methicillin-sensitive dfrC, dfrA-positive and dfrD-negative Staphylococcus epidermidis; format: functional
[25] = system: Staphylococcus epidermidis; experiment: Antibacterial activity against methicillin-resistant dfrC, dfrA-positive and dfrA within SCCmec-N1, dfrD-negative Staphylococcus epidermidis; format: functional
[26] = system: Staphylococcus aureus; experiment: Antibacterial activity against methicillin, vancomycin, trimethoprim-sensitive Staphylococcus aureus ATCC 29213 harboring dfrB gene; format: functional
[27] = system: Staphylococcus aureus; experiment: Antibacterial activity against vancomycin, trimethoprim-sensitive and methicillin-resistant Staphylococcus aureus ATCC 43300 harboring dfrB gene; format: functional
[28] = system: Staphylococcus aureus; experiment: Antibacterial activity against vancomycin, trimethoprim, methicillin-resistant Staphylococcus aureus VRS1 harboring dfrA and dfrB genes; format: functional
[29] = system: Staphylococcus epidermidis; experiment: Antibacterial activity against methicillin, vancomycin, trimethoprim-sensitive Staphylococcus epidermidis ATCC 14990 harboring dfrC gene; format: functional
[30] = system: Staphylococcus epidermidis; experiment: Antibacterial activity against methicillin, vancomycin-sensitive and trimethoprim-resistant Staphylococcus epidermidis BAS000635 harboring dfrC and dfrA genes; format: functional
[31] = Inhibition of trimethoprim-sensitive Staphylococcus aureus DfrB type dihydrofolate reductase
[32] = target: Dihydrofolate reductase (Staphylococcus aureus, UniProt P0A017, F99Y); experiment: Inhibition of trimethoprim-resistant Staphylococcus aureus DfrB type dihydrofolate reductase F98Y mutant
[33] = Inhibition of trimethoprim-resistant Staphylococcus aureus Type S1 dihydrofolate reductase
[34] = system: HeLa; experiment: Cytotoxicity against human HeLa cells; format: cell-based
[35] = Genotoxicity in Salmonella enterica serovar Typhimurium assessed as increase in number of bacterial revertant colonies by Ames test; format: toxicity; conditions: salmonella enterica subsp. enterica serovar typhimurium
[36] = system: Mus musculus; experiment: Hepatotoxicity in NMRI mouse assessed as increase in liver weight at 400 mg/kg administered through oral gavage for 5 days; format: toxicity, organism-based; set-up: dose 400 mg/kg, route oral; conditions: in vivo, 120 h
[37] = system: Mus musculus; experiment: Hepatotoxicity in NMRI mouse assessed as increase in liver weight at 400 mg/kg administered through oral gavage for 10 days; format: toxicity, organism-based; set-up: dose 400 mg/kg, route oral; conditions: in vivo, 240 h
[38] = Oral bioavailability in NMRI mouse; format: ADME, organism-based; conditions: in vivo
[39] = Cmax in NMRI mouse blood at 25 mg/kg administered through oral gavage measured after 7 hrs; format: ADME, organism-based; set-up: dose 25 mg/kg, route oral
[40] = Tmax in NMRI mouse blood at 25 mg/kg administered through oral gavage measured after 7 hrs; format: ADME, organism-based; set-up: dose 25 mg/kg, route oral
[41] = AUC (0 to t) in NMRI mouse blood at 25 mg/kg administered through oral gavage after 7 hrs; format: ADME, organism-based; set-up: time < 7 hr, dose 25 mg/kg, route oral
[42] = system: Mus musculus; experiment: Hepatotoxicity in NMRI mouse assessed as inflammatory infiltrates at 400 mg/kg administered through oral gavage for 5 days; format: toxicity, organism-based; set-up: dose 400 mg/kg, route oral; conditions: in vivo, 120 h
[43] = system: Mus musculus; experiment: Hepatotoxicity in NMRI mouse assessed as inflammatory infiltrates at 400 mg/kg administered through oral gavage for 10 days; format: toxicity, organism-based; set-up: dose 400 mg/kg, route oral; conditions: in vivo, 240 h
[44] = system: Mus musculus; experiment: Hepatotoxicity in NMRI mouse assessed as single-cell necrosis at 400 mg/kg administered through oral gavage for 5 days; format: toxicity, organism-based; set-up: dose 400 mg/kg, route oral; conditions: in vivo, 120 h
[45] = system: Mus musculus; experiment: Hepatotoxicity in NMRI mouse assessed as single-cell necrosis at 400 mg/kg administered through oral gavage for 10 days; format: toxicity, organism-based; set-up: dose 400 mg/kg, route oral; conditions: in vivo, 240 h
[46] = system: Mus musculus; experiment: Hepatotoxicity in NMRI mouse assessed as increase in mitosis at 400 mg/kg administered through oral gavage for 10 days; format: toxicity, organism-based; set-up: dose 400 mg/kg, route oral; conditions: in vivo, 240 h
[47] = system: Mus musculus; experiment: Hepatotoxicity in NMRI mouse assessed as increase in mitosis at 400 mg/kg administered through oral gavage for 5 days; format: toxicity, organism-based; set-up: dose 400 mg/kg, route oral; conditions: in vivo, 120 h
[48] = system: Staphylococcus aureus; experiment: Antibacterial activity against trimethoprim-sensitive Staphylococcus aureus ATCC 29213; format: functional
[49] = system: Staphylococcus aureus; experiment: Antibacterial activity against trimethoprim-sensitive Staphylococcus aureus ATCC 29213 infected in NMRI mouse model of septicemia assessed as complete protection from infections at 3.1 mg/kg, iv; format: functional, organism-based; set-up: dose 3.1 mg/kg
[50] = system: Staphylococcus aureus; experiment: Antibacterial activity against trimethoprim-sensitive Staphylococcus aureus ATCC 29213 infected in NMRI mouse model of septicemia assessed as succumbed to infections at 1.6 mg/kg, iv; format: functional, organism-based; set-up: dose 1.6 mg/kg
[51] = system: Staphylococcus aureus; experiment: Antibacterial activity against trimethoprim-sensitive Staphylococcus aureus ATCC 29213 infected in NMRI mouse model of septicemia; format: functional
[52] = system: Staphylococcus aureus; experiment: Antibacterial activity against trimethoprim-resistant Staphylococcus aureus BAS003908; format: functional
[53] = system: Staphylococcus aureus; experiment: Antibacterial activity against trimethoprim-resistant Staphylococcus aureus BAS003908 infected in NMRI mouse model of septicemia; format: functional
[54] = system: Mus musculus; experiment: Toxicity in po dosed NMRI mouse; format: organism-based; conditions: in vivo

Question: With `COc1ncc(C2c3ccccc3C=NN2C(=O)/C=C/c2cc(Cc3cnc(N)nc3N)cc(OC)c2OC)cn1` (stereo not given) as the compound, how does the Activity [1] read?
Answer: 77%

Question: What about the MIC [2] of the same compound?
Answer: ≤ 0.25 µg/mL

Question: And the MIC [3]?
Answer: ≤ 0.25 µg/mL

Question: And the MIC [4]?
Answer: 1 µg/mL

Question: What about the MIC [5] of the same compound?
Answer: 1 µg/mL (≈ 1.81 µM)

Question: And the MIC [6]?
Answer: ≥ 128 µg/mL

Question: And the MIC [7]?
Answer: > 128 µg/mL

Question: What about the MIC [8] of the same compound?
Answer: 64 µg/mL (≈ 116 µM)

Question: What about the MIC [9] of the same compound?
Answer: 32 µg/mL

Question: And the MIC [10]?
Answer: ≥ 128 µg/mL

Question: What about the MIC [11] of the same compound?
Answer: > 128 µg/mL

Question: And the MIC [12]?
Answer: 64 µg/mL

Question: And the MIC [13]?
Answer: 32 µg/mL

Question: And the MIC [14]?
Answer: 0.5 µg/mL (≈ 0.905 µM)

Question: What about the MIC [15] of the same compound?
Answer: > 128 µg/mL

Question: What about the MIC [16] of the same compound?
Answer: ≤ 0.25 µg/mL

Question: What about the MIC [17] of the same compound?
Answer: 2 µg/mL (≈ 3.62 µM)

Question: And the MIC [18]?
Answer: ≤ 0.25 µg/mL

Question: And the MIC [19]?
Answer: 0.5 µg/mL (≈ 0.905 µM)

Question: And the MIC [20]?
Answer: 1 µg/mL (≈ 1.81 µM)

Question: What about the MIC ([20]; Staphylococcus aureus, read-out: MIC) of the same compound?
Answer: 1 µg/mL (≈ 1.81 µM)

Question: And the MIC [21]?
Answer: 32 µg/mL (≈ 57.9 µM)

Question: What about the MIC [22] of the same compound?
Answer: ≤ 0.25 µg/mL

Question: And the MIC [23]?
Answer: 0.5 µg/mL (≈ 0.905 µM)

Question: And the MIC [24]?
Answer: 0.5 µg/mL (≈ 0.905 µM)

Question: And the MIC [25]?
Answer: 0.5 µg/mL (≈ 0.905 µM)

Question: And the MIC [26]?
Answer: 0.5 µg/mL (≈ 0.905 µM)

Question: What about the MIC [27] of the same compound?
Answer: 0.25 µg/mL (≈ 0.452 µM)

Question: And the MIC [28]?
Answer: 4 µg/mL (≈ 7.24 µM)

Question: And the MIC [29]?
Answer: 0.125 µg/mL (≈ 0.226 µM)

Question: And the MIC [30]?
Answer: 4 µg/mL (≈ 7.24 µM)

Question: And the pIC50 [31]?
Answer: 8.28

Question: And the pIC50 [32]?
Answer: 7.65

Question: And the pIC50 [33]?
Answer: 6.92

Question: What about the pIC50 [34] of the same compound?
Answer: 4.92

Question: And the Activity [35]?
Answer: Non-toxic

Question: What about the Activity [36] of the same compound?
Answer: < 10%

Question: And the Activity [37]?
Answer: < 10%

Question: What about the bioavailability [38] of the same compound?
Answer: 25%

Question: And the Cmax [39]?
Answer: 3240 ng/mL

Question: And the Tmax [40]?
Answer: 30 min

Question: And the AUC(0-t) at 7 h [41]?
Answer: 10600 ng·h/mL

Question: And the Activity [42]?
Answer: < 10%

Question: What about the Activity [43] of the same compound?
Answer: < 10%

Question: And the Activity [44]?
Answer: < 10%

Question: And the Activity [45]?
Answer: < 10%

Question: What about the Activity [46] of the same compound?
Answer: < 10%

Question: And the Activity [47]?
Answer: < 10%

Question: And the MIC [48]?
Answer: < 0.25 µg/mL

Question: And the Activity [49]?
Answer: Active

Question: And the Activity [50]?
Answer: inactive

Question: And the ED50 [51]?
Answer: 1.6 mg/kg

Question: What about the MIC [52] of the same compound?
Answer: 0.5 µg/mL (≈ 0.905 µM)

Question: And the ED50 [53]?
Answer: 3.1 mg/kg

Question: And the Activity [54]?
Answer: 400 mg/kg
